Data from PubChem BioAssay (NCI).
Values joined by “and” are separate entries in the source; they are usually repeats but may differ in a detail not shown here. Equal values may be shown once.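 How tested: cells in 96-well plates exposed to compound for 48 hours at five concentrations. Abbreviation: GI50, concentration required for 50% inhibition of growth. TGI is the concentration that stops growth completely.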

Experiments:
Experiment in all cases: NCI-60 cell line screen, 48 h
A498 renal = system: A498 renal
CCRF-CEM leukemia = system: CCRF-CEM leukemia
HCC-2998 colon = system: HCC-2998 colon
HCT-116 colon = system: HCT-116 colon
LOX IMVI melanoma = system: LOX IMVI melanoma
NCI-H23 lung = system: NCI-H23 lung
OVCAR-8 ovarian = system: OVCAR-8 ovarian
SF-295 CNS = system: SF-295 CNS
UACC-62 melanoma = system: UACC-62 melanoma
UO-31 renal = system: UO-31 renal

SMILES | GI50 (A498 renal) [µM] | TGI (A498 renal) | GI50 (CCRF-CEM leukemia) [µM] | TGI (CCRF-CEM leukemia) | GI50 (HCC-2998 colon) [µM] | TGI (HCC-2998 colon) [µM] | GI50 (HCT-116 colon) [µM] | TGI (HCT-116 colon) | GI50 (LOX IMVI melanoma) [µM] | TGI (LOX IMVI melanoma) | GI50 (NCI-H23 lung) [µM] | TGI (NCI-H23 lung) | GI50 (OVCAR-8 ovarian) [µM] | TGI (OVCAR-8 ovarian) | GI50 (SF-295 CNS) [µM] | TGI (SF-295 CNS) [µM] | GI50 (UACC-62 melanoma) [µM] | TGI (UACC-62 melanoma) | GI50 (UO-31 renal) [µM] | TGI (UO-31 renal)
Cn1c2ccccc2c2nnc(NNCc3ccccn3)nc21 | 0.415 | 12.3 µM | 0.357 | 12.7 µM | 0.321 | 12.7 | 0.409 | 12.2 µM | 0.349 | 4.51 µM | 0.421 | 6.15 µM | 0.429 | 20.5 µM | 0.397 | 12.4 | 0.268 | 0.98 µM | 0.258 | 1.98 µM
COc1ccc2nccc(/C=C/c3ccnc4ccc(OC)cc34)c2c1 | > 36.9 | > 83.9 µM | > 38.9 | > 53.3 µM | > 100 | > 100 | 38.7 | > 100 µM | 69.3 | > 100 µM | > 100 | > 100 µM | > 100 | > 100 µM | > 64.6 | > 100 | > 77.4 | > 100 µM | > 100 | > 100 µM
Nc1ncnc2nn(C3OC(CO)C(O)C3O)nc12 (stereo not drawn) | – | > 59.6 µM | – | > 67 µM | – | 32.8 | – | 39.1 µM | – | 23 µM | – | 67.9 µM | – | > 100 µM | – | > 89.3 | – | > 100 µM | – | 49 µM
CN(C)c1ccc(/C=N/NC(=O)c2cccc3ccccc23)c(Cl)c1 | 0.422 | 6.26 µM | 0.581 | > 100 µM | 38.5 | > 100 | 0.559 | > 100 µM | 1.86 | > 100 µM | 7.51 | > 100 µM | 3.29 | > 100 µM | 0.588 | 9.96 | 0.978 | > 100 µM | 14.6 | > 100 µM
CN1CCN(c2ccc(C(=O)Nc3cccc(C#Cc4cccc5[nH]nc(N)c45)c3)cc2C(F)(F)F)CC1 | 2.22 | 6.76 µM | 1.16 | 4.6 µM | 0.658 | 1.31 | 0.525 | 1.04 µM | 0.59 | 1.08 µM | 1.79 | 6.12 µM | 1.09 | 4.77 µM | 0.654 | 1.39 | 0.665 | 1.62 µM | 0.713 | 1.8 µM
CN(C)CCNc1nc2ccccc2c2occc12 | 48.5 | 81.6 µM | 20.9 | > 100 µM | 36 | 89.5 | 34.1 | > 100 µM | 19.1 | 42.8 µM | 69.5 | > 100 µM | 62.3 | > 100 µM | 60.2 | > 100 | 16.6 | 34.3 µM | 26.1 | > 100 µM
CCN1C(=O)N(CC)C2C1NN=c1s/c(=C\c3cccc([N+](=O)[O-])c3)c(=O)n12 (stereo not drawn) | 0.0254 | 0.0916 µM | 0.116 | > 100 µM | 0.229 | > 100 | 0.0422 | > 100 µM | 0.0568 | > 100 µM | 0.413 | > 100 µM | 0.172 | > 100 µM | 0.0423 | > 100 | 0.0539 | > 100 µM | 0.321 | > 100 µM
Cc1ccc(C)c2c(N=Nc3ccccc3[N+](=O)[O-])c(O)[nH]c12 | – | > 100 µM | – | > 100 µM | – | > 100 | – | > 100 µM | – | > 100 µM | – | > 100 µM | – | – | – | > 100 | – | > 100 µM | – | > 100 µM
CC(=O)NC1=C(Sc2ccc(Cl)cc2)C(=O)c2ccccc2C1=O | – | 16.4 µM | – | 4.64 µM | – | 27.8 | – | – | – | 14 µM | – | 37 µM | – | 6.77 µM | – | 20.9 | – | 13.3 µM | – | 4.13 µM
CSc1nc(N)c2c(n1)NC(c1ccccc1)C1CCc3ccccc3C1=N2 (stereo not drawn) | > 100 | > 100 µM | 3.33 | > 100 µM | > 100 | > 100 | 7.39 | > 100 µM | 7.16 | > 100 µM | 6.16 | > 100 µM | 5.39 | > 100 µM | 25.6 | > 100 | 6.01 | > 100 µM | 0.737 | 9.72 µM
COc1cc2c(cc1OC)[C@@H]([C@H](O)c1ccccc1)NCC2 | – | > 100 µM | – | > 100 µM | – | > 100 | – | > 100 µM | – | > 100 µM | – | > 100 µM | – | > 100 µM | – | > 100 | – | > 100 µM | – | > 100 µM
CC(C)(C)OC(=O)NCCCCCCCCCCn1c2c(c3ccccc3c1=O)C(=O)c1ccccc1-2 | 26.2 | 66 µM | 20 | > 100 µM | > 100 | > 100 | 60 | > 100 µM | > 100 | > 100 µM | 34.2 | > 100 µM | 89.9 | > 100 µM | 30.9 | > 100 | 43.9 | > 100 µM | > 100 | > 100 µM
C[C@@](O)(/C=C/[C@H]1CC=CC(=O)O1)[C@@H](C[C@@H](O)\C=C/C=C\C=C\CO)OP(=O)(O)O | 40.2 | 83.8 µM and 60.3 µM | 3.52 | 335 µM and 34.1 µM | – | 22.3 | 4.1 | 8.87 µM and 11 µM | 4.32 | 10.1 µM and 6.8 µM | 15 | 91.6 µM and 68.3 µM | 12.3 | 90.7 µM and 86.5 µM | – | 13.4 | 6.51 | 28 µM and 11 µM | 9.39 | 19.5 µM and 22 µM
CCN(CC)CCC(=O)/C=C/c1ccc(C)cc1 | – | 24 µM | – | 56.1 µM | – | 32.6 | – | 26.2 µM | – | 14.6 µM | – | 32.4 µM | – | 32.4 µM | – | 34.6 | – | 30.9 µM | – | 29.8 µM
Cc1cc(NS(=O)(=O)c2ccc(NC(=O)COC(=O)c3cccc4c(=O)c5ccccc5[nH]c34)cc2)no1 | – | > 100 µM | – | > 100 µM | – | > 100 | – | > 100 µM | – | > 100 µM | – | > 100 µM | – | > 100 µM | – | > 100 | – | > 100 µM | – | > 100 µM
Cc1ccc2c(CC(=O)O)cc(=O)oc2c1 | – | > 100 µM | – | > 100 µM | – | > 100 | – | > 100 µM | – | > 100 µM | – | > 100 µM | – | > 100 µM | – | > 100 | – | > 100 µM | – | –
COC(=O)C(=O)C(CC(=O)Nc1cccc(C(F)(F)F)c1)C(=O)OC (stereo not drawn) | – | > 100 µM | – | > 100 µM | – | > 100 | – | > 100 µM | – | > 100 µM | – | > 100 µM | – | > 100 µM | – | – | – | > 100 µM | – | > 100 µM
COc1ccc(/C(=N/O)c2cc(OC)c(OC)c(OC)c2)c(OC)c1N | 4.01 | > 100 µM | 4.09 | > 100 µM | 4.29 | > 100 | 3.41 | > 100 µM | 7.28 | > 100 µM | 7.06 | > 100 µM | 9.87 | > 100 µM | 3.02 | > 100 | – | – | 5.45 | > 100 µM
C#C/C=C/CC1OC(C(Br)CC)CC(Br)C2CC1O2 (stereo not drawn) | – | > 100 µM | – | > 100 µM | – | > 100 | – | > 100 µM | – | 3.39 µM | – | > 100 µM | – | > 100 µM | – | > 100 | – | > 100 µM | – | –
O=S(=O)(NCCO)c1cc[c]([Sb](=[O])([OH])[OH])cc1 | > 100 | > 100 µM | – | – | > 100 | > 100 | > 100 | > 100 µM | > 100 | > 100 µM | > 100 | > 100 µM | > 100 | > 100 µM | > 100 | > 100 | > 100 | > 100 µM | > 100 | > 100 µM
CC(=O)c1cccc(NC(=O)c2ccc(NC3=C(Cl)C(=O)N(Cc4ccccc4)C3=O)cc2)c1 | 19.6 | 60.4 µM | – | – | 23.1 | 41 | 12.6 | 25.9 µM | 13.9 | 33.8 µM | 23 | 43.7 µM | 14.3 | 50.7 µM | 15.3 | 47.8 | 13.8 | 29.3 µM | 1.52 | 3.12 µM
Cc1cc2c(cc1C)[n+](Cc1ccc3ccccc3n1)cn2Cc1ccc2ccccc2n1 | 1.04 | 2.36 µM | 1.83 | 12.8 µM | 1.27 | 2.73 | 0.407 | 1.74 µM | 0.669 | 2 µM | 0.736 | 3.53 µM | – | – | 1.12 | 2.63 | 0.612 | 2.1 µM | 1.33 | 2.84 µM
O=C1CCC2(c3ccccc3)Nc3ccc(Cl)cc3N12 (stereo not drawn) | – | > 100 µM | – | > 100 µM | – | > 100 | – | – | – | > 100 µM | – | > 100 µM | – | > 100 µM | – | > 100 | – | > 100 µM | – | > 100 µM
O=c1cc(O)c2c(O)cc(O)cc2o1 | – | > 100 µM | – | > 100 µM | – | > 100 | – | > 100 µM | – | > 100 µM | – | > 100 µM | – | > 100 µM | – | > 100 | – | > 100 µM | – | –
